Results: patent US20240239806A1, “COMPOUNDS, COMPOSITIONS AND METHODS OF TREATING DISORDERS” (Chengdu Anticancer Bioscience, Ltd., priority 2021, published 2024)
Where two headings read alike, the source gives them in different places.

Test system: RPEMYC^H2B-GFP cells
Assay: Phenotypic screening assay (mitotic arrest, polyploidy)
Type: cell-based
Settings: 1 nM to 30 μM; for IC50: read-out: Proliferative arrest (>50%)
Experimental: We have previously developed a mechanism-informed phenotypic screening assay to identify novel antimitotic agents. Equipped with a prior understanding of the versatile functions of the chromosomal passenger protein (CPP) complex in orchestrating karyokinesis and cytokinesis, the screening assay is to score for phenotypes typically seen when the CPP complex is disabled. Specifically, the parameters for a positive hit are a temporary elevation of mitotic index (MI) at 24 hours of drug treatment and an accumulation of polyploid cells at 48 hours of drug treatment, indicative of mitotic arrest and cytokinetic failure respectively. These parameters exclude compounds that elicit only a prolonged arrest of cells in mitosis, a phenotype typically provoked by spindle toxins. The screening procedure is briefly summarized here. RPEMYC^H2B-GFP cells engineered to express a Histone 2B-EGFP fusion protein were passaged as batches of 96-well plates, 18-24 hours before exposure to the chemical compounds of the present disclosure at concentrations from 1 nM to 30 μM. At 24, 48 or 72 hours after initiation of treatment, cells were analyzed for either an arrest in mitosis or a change in DNA content by GE IN-Cell Analyzer 2000. As set forth in Table 2 below, a value of greater than or equal to 1 nM and less than or equal to 1.0 μM is marked “A”; a value greater than 1.00 μM and less than or equal to 10.0 μM is marked “B”; a value greater than 10.0 μM and less than or equal to 30.0 μM is marked “C”; and a value greater than 30.0 μM is marked “D.”

[1] = read-out: Min. Effective conc. for Polyploidy (≥5%)

| Compound | minimal effective concentration [1] | minimal effective concentration (read-out: Mitotic Arrest (≥5%)) | IC50 |
| --- | --- | --- | --- |
| COc1cc(Oc2ccnc3ccccc23)cc(C(=O)O)c1 [Compound 9, 3-methoxy-5-(quinolin-4-yloxy) benzoic add] | > 30 µM | > 30 µM | > 30000 nM |
| COc1cc(Oc2ccnc3cc(OC)c(C(N)=O)cc23)cc(-c2cnn(C)c2)c1 [Compound 66, 7-Methoxy-4-(3-methoxy-5-(1-methyl-H-pyrazol-4-yl)phenoxy)quinoline-6-carboxamide] | 0.001 to 1 µM | 0.001 to 1 µM | 1 to 1000 nM |
| COc1cc(NC(C)=O)cc(Oc2ccnc3ccc(Cl)cc23)c1 [Compound 50, N-(3-((6-chloroquinolin-4-yl)oxy)-5-methoxyphenyl) acetamide] | 0.001 to 1 µM | 0.001 to 1 µM | 1 to 1000 nM |
| COc1cc(Oc2ncnc3cc(OC)c(OC)cc23)cc(-n2cnc(C)c2)c1 [Compound 75, 4-(3-Methoxy-5(4-methyl-H-imidazol-1-yl)phenoxy)-6,7-dimethoxyquinazoline] | 0.001 to 1 µM | 0.001 to 1 µM | 1 to 1000 nM |
| COc1cc(Oc2ccnc3ccc(Cl)cc23)cc(-n2cccn2)c1 [Compound 51, 6-Chloro-4-(3-methoxy-5-(1H-pyrazol-1-yl)phenoxy) quinoline] | 0.001 to 1 µM | 0.001 to 1 µM | 1 to 1000 nM |
| COc1cc(Oc2ccnc3ccccc23)cc(-n2cnc(C)c2)c1 [Compound 77, 4-(3-Methoxy-5-(4-methyl-1H-imidazol-1-yl)phenoxy)quinoline] | 0.001 to 1 µM | 0.001 to 1 µM | 1 to 1000 nM |
| COc1cc(Oc2ccnc3ccc(Br)cc23)cc(-c2nc(C)no2)c1 [Compound 67, 5-(3-((6-Bromoquinolin-4-yl)oxy)-5-methoyphenyl)-3-methyl-1,2,4-oxadiazole] | 0.001 to 1 µM | 0.001 to 1 µM | 1 to 1000 nM |
| COc1cc(Oc2cc(C)nc3ccccc23)cc(-n2cccn2)c1 [Compound 96, 4-(3-methoxy-5-(1H-pyrazol-1-yl)phenoxy)-2-methylquinoline] | 0.001 to 1 µM | 0.001 to 1 µM | – |
| COc1cc2nccc(Oc3cc(-n4cccn4)cc(-n4cccn4)c3)c2cc1C(N)=O [Compound 4, 4-(3,5-di(1H-pyrazol-1-yl)phenoxy)-7-methoxyquinoline-6-carboxamide] | 0.001 to 1 µM | 0.001 to 1 µM | – |
| COc1cc(Oc2ccnc3cc(OC)c(C(N)=O)cc23)cc(O[C@@H]2CCOC2)c1 [Compound 81, (R)-7-methoxy-4-(3-methoxy-5-((tetrahydrofuran-3-yl)oxy)phenoxy)quinoline-6-carboxamide] | 0.001 to 1 µM | 0.001 to 1 µM | – |
| CNC(=O)c1cc(OC)cc(Oc2ccnc3cc(OC)c(Br)cc23)c1 [Compound 90, 3-((6-bromo-7-methoxyquinolin-4-yl)oxy)-5-methoxy-N-methylbenzamide] | 1 to 10 µM | 1 to 10 µM | – |
| CNC(=O)c1cc(OC)cc(Oc2ccnc3ccc(Br)cc23)c1 [Compound 72, 3-((6-Bromoquinolin-4-yl)oxy)-5-methoxy-N-methylbenzamide] | 0.001 to 1 µM | 0.001 to 1 µM | 1 to 1000 nM |
| COc1cc(NC(C)=O)cc(Oc2ccnc3cc(OC)c(C(N)=O)cc23)c1 [Compound 31, 4-(3-acetamido-5-methoxyphenoxy)-7-methoxyquinoline-6-carboxamide] | 0.001 to 1 µM | 0.001 to 1 µM | 1 to 1000 nM |
| COc1cc(Oc2ccnc3ccc(C(N)=O)cc23)cc(O[C@@H]2CCOC2)c1 [Compound 3, (R)-4-(methoxy-5-((tetrahydrofuran-3-yl)oxy)phenoxy)quinoline-6-carboxamide] | 0.001 to 1 µM | 0.001 to 1 µM | – |
| CNC(=O)c1cc(OC)cc(Oc2ccnc3ccccc23)c1 [Compound 10, 3-methoxy-N-methyl-5-(quinolin-4-yloxy)benzamide] | 1 to 10 µM | 0.001 to 1 µM | 1000 to 10000 nM |
| COC(=O)c1cc(OC)cc(Oc2ncnc3sccc23)c1 [Compound 41, methyl 3-methoxy-5-(thieno[2,3-d]pyrimidin-4-yloxy)benzoate] | 0.001 to 1 µM | 0.001 to 1 µM | 1 to 1000 nM |
| COc1cc(Oc2ccnc3ccc(Br)cc23)cc(OC2CCOC2)c1 (centres unmarked) [Compound 92, 6-bromo-4-(3-methoxy-5-((tetrahydrofuran-3-yl)oxy)phenoxy)quinoline] | 0.001 to 1 µM | 0.001 to 1 µM | – |
| COc1cc2nccc(Oc3cc(Cl)cc(-n4cccn4)c3)c2cc1C(N)=O [Compound 5, 4-(3-chloro-5-(1H-pyrazol-1-yl)phenoxy)-7-methoxyquinoline-6-carboxamide] | 1 to 10 µM | 1 to 10 µM | – |
| COc1cc(Oc2ccnc3ccc(C(N)=O)cc23)cc(-n2cccn2)c1 [Compound 61, 4-(3-Methoxy-5-(1H-pyrazol-1-yl)phenoxy) quinolin-6-carbazamide] | 0.001 to 1 µM | 0.001 to 1 µM | 1 to 1000 nM |
